Results from ChEMBL document CHEMBL1201862, “PubChem BioAssay data set” (2004).
Active and inactive are the calls of the source. Rule as the data show it, for most assays here: actives have a measured IC50 and inactives only a lower limit.

Columns and labels:
[1] = molecular target: T1, Acyl-homoserine lactone acylase PvdQ (Pseudomonas aeruginosa (strain LESB58), UniProt Q9I194); assay: P. aeruginosa PvdQ acylase inhibitors, dose response, biochemical, fluorescence, plate reader and imaging, cherry-picks (AID 493231)
T1 sequence (Q9I194 whole entry): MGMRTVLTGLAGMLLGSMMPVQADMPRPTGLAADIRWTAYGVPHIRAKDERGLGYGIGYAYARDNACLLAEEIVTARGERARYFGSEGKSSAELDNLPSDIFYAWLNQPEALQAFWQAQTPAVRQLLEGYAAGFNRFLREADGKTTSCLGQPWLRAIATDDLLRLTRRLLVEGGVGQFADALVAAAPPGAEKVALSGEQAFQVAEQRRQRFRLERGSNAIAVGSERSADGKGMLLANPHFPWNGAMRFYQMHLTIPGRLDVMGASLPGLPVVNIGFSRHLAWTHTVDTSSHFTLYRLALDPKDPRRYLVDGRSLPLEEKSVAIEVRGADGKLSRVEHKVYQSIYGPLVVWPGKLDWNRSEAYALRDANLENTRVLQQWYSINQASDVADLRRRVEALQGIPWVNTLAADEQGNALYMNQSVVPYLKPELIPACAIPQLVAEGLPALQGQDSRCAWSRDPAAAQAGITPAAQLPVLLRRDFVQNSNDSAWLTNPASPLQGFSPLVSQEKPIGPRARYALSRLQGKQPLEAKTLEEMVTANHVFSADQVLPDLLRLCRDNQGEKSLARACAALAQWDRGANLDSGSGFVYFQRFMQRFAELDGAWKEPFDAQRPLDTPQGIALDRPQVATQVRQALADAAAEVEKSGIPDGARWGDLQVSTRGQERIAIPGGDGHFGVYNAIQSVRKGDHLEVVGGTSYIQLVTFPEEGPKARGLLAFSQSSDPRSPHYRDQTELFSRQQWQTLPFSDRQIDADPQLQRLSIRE

HeLa = assay: HeLa cell cytotoxicity, dose response, cytotoxicity control, 48 h, plate reader, cherry-picks (AID 504942); type: functional, cell-based; conditions: Homo sapiens
[2] = molecular target: T2, RNA-binding protein pos-1 (Caenorhabditis elegans, UniProt G5EF15); assay: inhibitors of POS-1/mex-3 RNA binding, dose response, biochemical, fluorescence polarization (AID 1964);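 also: purified POS-1 fused to maltose binding protein made in E. coli; potency of compounds blocking POS-1 binding to fluorescent RNA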
T2 sequence (G5EF15 whole entry): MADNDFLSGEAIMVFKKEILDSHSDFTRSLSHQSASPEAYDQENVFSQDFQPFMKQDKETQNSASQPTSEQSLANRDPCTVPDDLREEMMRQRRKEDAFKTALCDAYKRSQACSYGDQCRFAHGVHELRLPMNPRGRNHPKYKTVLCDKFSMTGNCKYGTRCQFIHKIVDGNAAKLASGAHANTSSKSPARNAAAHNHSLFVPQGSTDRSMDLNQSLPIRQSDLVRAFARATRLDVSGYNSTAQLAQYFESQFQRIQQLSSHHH

[3] = molecular target: T3, Endoribonuclease toxin MazF (Escherichia coli K-12, UniProt P0AE70); assay: fluorescent RNA oligo signal without MazF, dose response, counter-screen for MazEF activator project, biochemical, fluorescence, single-stranded RNase substrate (AID 588502); type: functional
[4] = molecular target: T3, Endoribonuclease toxin MazF; assay: MazF toxin RNase activators, dose response, biochemical, fluorescence, single-stranded RNA substrate, uHTS hits (AID 588481); type: functional
[5] = molecular target: Voltage-dependent T-type calcium channel subunit alpha-1H (Homo sapiens, UniProt O95180); type: functional;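 also: channel activity triggered by adding a high calcium stimulation buffer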
[6] = molecular target: T4, Corticotropin-releasing factor receptor 2/Corticotropin-releasing factor-binding protein (Homo sapiens, UniProt P24387+Q13324); assay: activators of CRF receptor 2 with binding protein – uHTS hits, confirmation (AID 602473); type: functional; conditions: read-out: EC50_Mean
T4 sequence (Q13324 whole entry): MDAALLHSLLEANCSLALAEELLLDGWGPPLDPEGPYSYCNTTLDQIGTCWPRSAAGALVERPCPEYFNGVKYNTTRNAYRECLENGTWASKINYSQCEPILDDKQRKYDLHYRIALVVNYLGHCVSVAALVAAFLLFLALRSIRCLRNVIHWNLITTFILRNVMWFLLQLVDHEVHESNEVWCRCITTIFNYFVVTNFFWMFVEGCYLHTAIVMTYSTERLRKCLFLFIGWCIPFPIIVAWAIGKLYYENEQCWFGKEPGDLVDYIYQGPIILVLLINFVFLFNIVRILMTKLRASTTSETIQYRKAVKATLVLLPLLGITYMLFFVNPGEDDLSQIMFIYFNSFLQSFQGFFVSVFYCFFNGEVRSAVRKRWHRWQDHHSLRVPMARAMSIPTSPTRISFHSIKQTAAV
T4 sequence (P24387 whole entry): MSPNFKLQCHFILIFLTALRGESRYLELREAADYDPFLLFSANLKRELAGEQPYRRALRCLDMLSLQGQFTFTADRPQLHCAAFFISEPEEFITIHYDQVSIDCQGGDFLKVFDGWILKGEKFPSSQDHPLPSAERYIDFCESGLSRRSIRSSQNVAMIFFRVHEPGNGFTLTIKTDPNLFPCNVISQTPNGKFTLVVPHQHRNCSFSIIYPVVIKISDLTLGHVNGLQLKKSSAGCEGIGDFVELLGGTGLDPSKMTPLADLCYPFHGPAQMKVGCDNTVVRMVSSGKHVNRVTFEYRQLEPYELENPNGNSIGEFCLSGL

Ephrin type-A receptor 4 = Ephrin type-A receptor 4 (Mus musculus, UniProt Q03137); assay: inhibitors of EphA4 binding to KYL peptide, primary screen, biochemical, colorimetric, mouse EphA4 (AID 689); type: functional
[7] = molecular target: T5, Zinc finger protein mex-5 (Caenorhabditis elegans, UniProt Q9XUB2); assay: MEX-5/TCR-2 RNA interaction inhibitors, dose response, biochemical, C. elegans, fluorescence polarization (AID 1960)
T5 sequence (Q9XUB2 whole entry): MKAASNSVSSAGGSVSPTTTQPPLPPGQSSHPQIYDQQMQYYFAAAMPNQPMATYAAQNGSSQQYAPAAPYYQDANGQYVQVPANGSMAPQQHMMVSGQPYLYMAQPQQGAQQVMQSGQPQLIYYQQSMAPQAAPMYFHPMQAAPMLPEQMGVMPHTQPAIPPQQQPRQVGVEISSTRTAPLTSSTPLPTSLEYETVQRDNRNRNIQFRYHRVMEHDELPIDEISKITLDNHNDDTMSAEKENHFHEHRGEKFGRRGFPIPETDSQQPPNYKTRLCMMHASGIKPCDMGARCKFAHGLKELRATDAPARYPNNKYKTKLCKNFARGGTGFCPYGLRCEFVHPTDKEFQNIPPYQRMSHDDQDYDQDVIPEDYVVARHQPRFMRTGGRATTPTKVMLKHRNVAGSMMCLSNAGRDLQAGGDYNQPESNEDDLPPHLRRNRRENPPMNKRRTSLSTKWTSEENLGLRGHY

[8] = molecular target: T6, Sentrin-specific protease 8 (Homo sapiens, UniProt Q96LD8); assay: SENP8 protease inhibitors, SAR follow-up, biochemical, luminescence, set 2 (AID 588601); type: functional
T6 sequence (Q96LD8 whole entry): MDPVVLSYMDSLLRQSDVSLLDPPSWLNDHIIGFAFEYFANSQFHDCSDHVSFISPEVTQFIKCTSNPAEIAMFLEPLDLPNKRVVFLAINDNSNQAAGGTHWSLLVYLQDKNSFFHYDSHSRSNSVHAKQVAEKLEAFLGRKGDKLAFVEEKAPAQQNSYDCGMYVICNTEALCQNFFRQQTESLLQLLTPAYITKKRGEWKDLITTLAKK

Caspase-3 [9] = molecular target: T7, Caspase-3 (Homo sapiens, UniProt P42574); assay: SAR Analysis of small molecule inhibitors of Sentrin-specific proteases (SENPs) using a Caspase-3 Selectivity assay. [Related pubchem assays (depositor defined):AID2540, AID2599, AID434973, AID489001]; type: functional
T7 sequence (P42574 whole entry): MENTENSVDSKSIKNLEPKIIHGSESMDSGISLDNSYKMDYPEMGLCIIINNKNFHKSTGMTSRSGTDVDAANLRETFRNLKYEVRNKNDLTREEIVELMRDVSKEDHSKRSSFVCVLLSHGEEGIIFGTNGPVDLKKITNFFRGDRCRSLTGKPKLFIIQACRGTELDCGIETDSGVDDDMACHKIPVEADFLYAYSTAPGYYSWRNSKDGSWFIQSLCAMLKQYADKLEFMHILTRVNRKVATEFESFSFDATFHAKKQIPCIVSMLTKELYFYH

[10] = molecular target: T8, Sentrin-specific protease 6 (Homo sapiens, UniProt Q9GZR1); assay: SAR Analysis of small molecule inhibitors of Sentrin-specific protease 6 (SENP6) using a Luminescent assay. [Related pubchem assays (depositor defined):AID2582, AID2599]; type: functional
T8 sequence (Q9GZR1 whole entry): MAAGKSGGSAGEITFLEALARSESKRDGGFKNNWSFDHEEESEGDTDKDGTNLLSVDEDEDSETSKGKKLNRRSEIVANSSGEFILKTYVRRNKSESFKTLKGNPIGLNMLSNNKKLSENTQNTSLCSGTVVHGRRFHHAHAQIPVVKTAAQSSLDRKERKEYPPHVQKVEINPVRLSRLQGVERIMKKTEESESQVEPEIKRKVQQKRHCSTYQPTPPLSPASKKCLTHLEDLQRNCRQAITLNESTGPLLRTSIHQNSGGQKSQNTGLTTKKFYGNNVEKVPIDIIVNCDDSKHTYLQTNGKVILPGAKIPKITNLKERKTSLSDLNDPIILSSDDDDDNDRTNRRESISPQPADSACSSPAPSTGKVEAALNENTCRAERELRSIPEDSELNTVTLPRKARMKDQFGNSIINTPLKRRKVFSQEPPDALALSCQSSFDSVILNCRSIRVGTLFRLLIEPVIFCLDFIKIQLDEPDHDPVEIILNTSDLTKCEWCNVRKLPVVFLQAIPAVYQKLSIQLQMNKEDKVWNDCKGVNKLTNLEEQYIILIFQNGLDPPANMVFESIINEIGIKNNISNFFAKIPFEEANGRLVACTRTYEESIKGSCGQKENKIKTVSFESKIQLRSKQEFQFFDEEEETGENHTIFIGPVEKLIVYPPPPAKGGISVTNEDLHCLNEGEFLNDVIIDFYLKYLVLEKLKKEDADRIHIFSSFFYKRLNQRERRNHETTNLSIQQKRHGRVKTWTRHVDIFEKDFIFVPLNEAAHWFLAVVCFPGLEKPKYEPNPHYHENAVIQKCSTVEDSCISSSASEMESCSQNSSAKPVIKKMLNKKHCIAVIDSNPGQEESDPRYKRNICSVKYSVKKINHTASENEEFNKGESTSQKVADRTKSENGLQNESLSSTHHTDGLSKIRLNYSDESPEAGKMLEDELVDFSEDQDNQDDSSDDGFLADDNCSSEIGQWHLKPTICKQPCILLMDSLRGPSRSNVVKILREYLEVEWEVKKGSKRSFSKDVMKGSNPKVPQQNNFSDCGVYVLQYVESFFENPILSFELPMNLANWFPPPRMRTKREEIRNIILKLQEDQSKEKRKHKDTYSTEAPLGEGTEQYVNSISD

[11] = molecular target: T9, Sentrin-specific protease 7 (Homo sapiens, UniProt Q9BQF6); assay: SENP7 protease inhibitors, SAR follow-up, biochemical, luminescence, set 2 (AID 588600); type: functional
T9 sequence (Q9BQF6 whole entry): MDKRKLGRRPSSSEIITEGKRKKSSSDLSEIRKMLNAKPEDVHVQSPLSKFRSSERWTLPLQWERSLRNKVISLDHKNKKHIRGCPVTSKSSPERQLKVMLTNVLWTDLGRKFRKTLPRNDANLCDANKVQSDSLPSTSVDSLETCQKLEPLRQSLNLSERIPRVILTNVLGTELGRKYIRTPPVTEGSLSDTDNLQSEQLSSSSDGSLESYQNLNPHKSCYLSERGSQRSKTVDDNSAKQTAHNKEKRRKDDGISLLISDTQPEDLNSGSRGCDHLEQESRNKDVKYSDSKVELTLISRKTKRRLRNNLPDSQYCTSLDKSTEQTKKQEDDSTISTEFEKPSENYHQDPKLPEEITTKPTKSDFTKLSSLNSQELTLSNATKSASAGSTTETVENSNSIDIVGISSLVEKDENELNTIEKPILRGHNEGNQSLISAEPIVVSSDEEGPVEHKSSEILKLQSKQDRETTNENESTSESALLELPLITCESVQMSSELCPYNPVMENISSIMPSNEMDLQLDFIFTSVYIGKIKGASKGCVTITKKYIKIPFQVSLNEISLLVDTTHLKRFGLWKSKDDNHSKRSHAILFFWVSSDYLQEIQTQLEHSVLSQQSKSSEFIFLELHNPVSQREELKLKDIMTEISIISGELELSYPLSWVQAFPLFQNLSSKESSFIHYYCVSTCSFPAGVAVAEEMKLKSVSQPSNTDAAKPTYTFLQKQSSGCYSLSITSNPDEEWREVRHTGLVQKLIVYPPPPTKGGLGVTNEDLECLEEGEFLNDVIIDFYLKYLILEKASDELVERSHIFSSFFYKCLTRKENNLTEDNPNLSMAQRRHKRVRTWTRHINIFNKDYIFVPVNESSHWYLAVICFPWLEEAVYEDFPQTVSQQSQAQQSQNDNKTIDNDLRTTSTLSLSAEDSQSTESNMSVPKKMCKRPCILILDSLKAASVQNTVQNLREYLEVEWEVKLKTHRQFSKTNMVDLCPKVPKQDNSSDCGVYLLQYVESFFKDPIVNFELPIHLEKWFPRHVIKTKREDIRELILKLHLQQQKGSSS

[12] = molecular target: T6, Sentrin-specific protease 8; assay: SENP8 protease inhibitors, SAR follow-up, biochemical, luminescence (AID 504501); type: functional
[13] = molecular target: T9, Sentrin-specific protease 7; assay: SENP7 protease inhibitors, SAR follow-up, biochemical, luminescence (AID 504497); type: functional
[14] = molecular target: T8, Sentrin-specific protease 6; assay: SENP6 protease inhibitors, SAR follow-up, biochemical, luminescence, set 2 (AID 588598); type: functional
Caspase-3 [15] = molecular target: T7, Caspase-3; assay: caspase-3 inhibitors as off-family protease, SAR follow-up, selectivity assay for SENP protease inhibitor project, biochemical, luminescence, set 2 (AID 588599); type: functional

T3 sequence (P0AE70 whole entry): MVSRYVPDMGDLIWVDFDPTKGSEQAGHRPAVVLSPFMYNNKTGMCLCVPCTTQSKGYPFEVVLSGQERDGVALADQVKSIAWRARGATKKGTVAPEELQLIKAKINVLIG
Chain of Ephrin type-A receptor 4 (Q03137 whole entry): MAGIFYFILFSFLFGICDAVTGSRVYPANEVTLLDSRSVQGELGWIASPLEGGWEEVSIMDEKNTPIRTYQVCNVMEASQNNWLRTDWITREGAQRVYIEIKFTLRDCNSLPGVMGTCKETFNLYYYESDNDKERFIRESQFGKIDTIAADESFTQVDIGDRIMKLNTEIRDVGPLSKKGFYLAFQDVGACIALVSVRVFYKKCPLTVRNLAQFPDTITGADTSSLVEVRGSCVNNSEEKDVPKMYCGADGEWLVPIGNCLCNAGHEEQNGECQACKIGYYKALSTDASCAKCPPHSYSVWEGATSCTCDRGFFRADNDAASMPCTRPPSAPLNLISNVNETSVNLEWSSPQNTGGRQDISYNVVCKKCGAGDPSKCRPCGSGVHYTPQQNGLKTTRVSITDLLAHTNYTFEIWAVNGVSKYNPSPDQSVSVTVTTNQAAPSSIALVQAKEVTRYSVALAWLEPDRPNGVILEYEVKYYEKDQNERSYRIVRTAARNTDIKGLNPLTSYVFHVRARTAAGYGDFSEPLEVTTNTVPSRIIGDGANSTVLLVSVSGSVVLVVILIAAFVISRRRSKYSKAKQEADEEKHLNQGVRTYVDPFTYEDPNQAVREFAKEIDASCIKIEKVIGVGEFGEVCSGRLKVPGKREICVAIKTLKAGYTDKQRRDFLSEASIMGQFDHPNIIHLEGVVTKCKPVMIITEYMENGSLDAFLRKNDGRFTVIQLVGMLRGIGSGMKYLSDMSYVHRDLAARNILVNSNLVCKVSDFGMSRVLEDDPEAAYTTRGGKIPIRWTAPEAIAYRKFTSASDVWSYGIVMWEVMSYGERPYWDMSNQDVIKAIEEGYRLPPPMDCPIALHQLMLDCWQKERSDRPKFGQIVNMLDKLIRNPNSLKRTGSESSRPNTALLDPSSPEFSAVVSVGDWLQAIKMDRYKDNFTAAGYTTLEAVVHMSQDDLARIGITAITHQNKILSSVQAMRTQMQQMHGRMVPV
Chain of Voltage-dependent T-type calcium channel subunit alpha-1H (O95180 whole entry): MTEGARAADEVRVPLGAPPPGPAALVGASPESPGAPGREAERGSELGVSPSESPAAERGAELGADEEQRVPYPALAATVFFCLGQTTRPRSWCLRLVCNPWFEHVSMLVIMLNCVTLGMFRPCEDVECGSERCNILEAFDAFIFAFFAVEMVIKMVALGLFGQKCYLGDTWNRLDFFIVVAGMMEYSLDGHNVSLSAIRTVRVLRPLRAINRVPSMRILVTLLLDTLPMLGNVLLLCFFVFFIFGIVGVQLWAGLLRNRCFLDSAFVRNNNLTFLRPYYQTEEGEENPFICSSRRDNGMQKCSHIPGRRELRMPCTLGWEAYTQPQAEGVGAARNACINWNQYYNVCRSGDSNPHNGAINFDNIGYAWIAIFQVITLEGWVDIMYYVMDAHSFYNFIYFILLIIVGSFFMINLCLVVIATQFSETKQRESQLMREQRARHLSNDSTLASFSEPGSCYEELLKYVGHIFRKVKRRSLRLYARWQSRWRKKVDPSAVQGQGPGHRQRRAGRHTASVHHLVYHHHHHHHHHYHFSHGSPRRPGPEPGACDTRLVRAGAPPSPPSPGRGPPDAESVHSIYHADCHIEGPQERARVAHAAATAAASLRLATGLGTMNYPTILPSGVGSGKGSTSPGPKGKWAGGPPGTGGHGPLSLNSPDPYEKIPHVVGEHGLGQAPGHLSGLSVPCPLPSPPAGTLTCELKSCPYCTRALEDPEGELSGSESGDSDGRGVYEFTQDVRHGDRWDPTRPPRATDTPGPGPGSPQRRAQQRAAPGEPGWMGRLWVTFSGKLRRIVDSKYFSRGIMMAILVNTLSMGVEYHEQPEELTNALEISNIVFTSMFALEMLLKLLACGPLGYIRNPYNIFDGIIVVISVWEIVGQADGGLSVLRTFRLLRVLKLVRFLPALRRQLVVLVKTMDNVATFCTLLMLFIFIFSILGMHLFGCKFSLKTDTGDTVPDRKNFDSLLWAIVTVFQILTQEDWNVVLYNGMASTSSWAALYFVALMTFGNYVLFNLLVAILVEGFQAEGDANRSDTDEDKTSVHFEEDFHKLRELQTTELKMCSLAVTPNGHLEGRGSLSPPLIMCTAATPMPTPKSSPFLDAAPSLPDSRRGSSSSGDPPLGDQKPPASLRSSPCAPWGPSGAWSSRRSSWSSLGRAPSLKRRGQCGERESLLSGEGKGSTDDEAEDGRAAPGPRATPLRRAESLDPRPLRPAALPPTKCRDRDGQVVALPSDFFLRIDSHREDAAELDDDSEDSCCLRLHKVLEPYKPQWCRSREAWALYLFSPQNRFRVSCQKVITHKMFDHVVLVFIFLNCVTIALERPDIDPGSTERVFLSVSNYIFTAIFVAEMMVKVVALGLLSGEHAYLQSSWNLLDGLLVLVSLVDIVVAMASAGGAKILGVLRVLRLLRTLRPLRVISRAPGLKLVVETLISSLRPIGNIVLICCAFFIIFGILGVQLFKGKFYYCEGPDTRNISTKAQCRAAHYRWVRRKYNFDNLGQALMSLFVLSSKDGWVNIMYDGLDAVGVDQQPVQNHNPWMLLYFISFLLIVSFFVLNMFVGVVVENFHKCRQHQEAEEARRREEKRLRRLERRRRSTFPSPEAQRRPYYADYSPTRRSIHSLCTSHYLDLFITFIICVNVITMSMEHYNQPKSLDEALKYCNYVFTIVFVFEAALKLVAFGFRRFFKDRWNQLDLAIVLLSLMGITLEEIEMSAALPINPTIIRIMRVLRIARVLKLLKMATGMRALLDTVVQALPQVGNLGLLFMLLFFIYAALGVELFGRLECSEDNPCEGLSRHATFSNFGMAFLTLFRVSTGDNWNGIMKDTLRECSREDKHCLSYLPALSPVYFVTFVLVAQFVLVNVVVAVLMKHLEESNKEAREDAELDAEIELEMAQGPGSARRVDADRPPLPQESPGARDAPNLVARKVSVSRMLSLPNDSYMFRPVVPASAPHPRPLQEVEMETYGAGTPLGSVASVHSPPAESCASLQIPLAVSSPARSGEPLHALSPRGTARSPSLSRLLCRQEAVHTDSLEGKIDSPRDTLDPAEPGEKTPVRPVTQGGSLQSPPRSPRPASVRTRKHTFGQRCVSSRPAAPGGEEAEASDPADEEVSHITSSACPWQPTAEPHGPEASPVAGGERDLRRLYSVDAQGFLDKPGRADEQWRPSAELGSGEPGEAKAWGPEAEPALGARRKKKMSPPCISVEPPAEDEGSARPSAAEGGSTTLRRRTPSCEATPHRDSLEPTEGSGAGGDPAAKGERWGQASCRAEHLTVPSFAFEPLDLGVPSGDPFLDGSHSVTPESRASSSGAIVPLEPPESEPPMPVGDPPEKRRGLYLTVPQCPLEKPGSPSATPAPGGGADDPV

Cn1cccc1C(=O)OCc1cc(-c2ccco2)on1
AC50 [1]: 11.1 µM (active)
AC50 (HeLa): > 380 µM (inactive)

CC(C)(C)C(=O)c1sc2nc(-c3cccs3)cc(C(F)(F)F)c2c1N
EC50 [2]: > 300 µM (not active)
EC50 [3]: > 99 µM (inactive)
EC50 [4]: > 99 µM (inactive)
EC50 [5]: 2.59 µM (active)
EC50 [6]: 18 µM (active)
IC50 (Ephrin type-A receptor 4): 9.9 µM (active)
EC50 [7]: > 300 µM (inconclusive)

Fc1ccc(/C=C/c2noc(-c3c(F)cccc3F)n2)cc1
IC50 [8]: 4.97 µM (active)
IC50 (Caspase-3 [9]): 34 µM (active)
IC50 [10]: > 99 µM (inactive)
IC50 [11]: 5.86 µM (active)
IC50 [12]: > 99 µM (inactive)
IC50 [13]: 11 µM (active)
IC50 [14]: 4.72 µM (active)
IC50 (Caspase-3 [15]): 30.8 µM (active)
